Measured values taken from ChEMBL document CHEMBL4393671, “Design of a Cyclin G Associated Kinase (GAK)/Epidermal Growth Factor Receptor (EGFR) Inhibitor Set to Interrogate the Relationship of EGFR and GAK in Chordoma” (J Med Chem, 2019).
Calls of active or inactive are those of the source. The calls are words filed in the database; no cut-off is given here.

Experiments:
[1] = biological target: Serine/threonine-protein kinase SIK2 (Homo sapiens, UniProt Q9H0K1); experiment: Binding affinity to wild-type human full length SIK2 (M1 to N926 residues) expressed in bacterial expression system by Kinomescan method
Sequence of Serine/threonine-protein kinase SIK2 (Q9H0K1 whole entry, the tested form may be a part): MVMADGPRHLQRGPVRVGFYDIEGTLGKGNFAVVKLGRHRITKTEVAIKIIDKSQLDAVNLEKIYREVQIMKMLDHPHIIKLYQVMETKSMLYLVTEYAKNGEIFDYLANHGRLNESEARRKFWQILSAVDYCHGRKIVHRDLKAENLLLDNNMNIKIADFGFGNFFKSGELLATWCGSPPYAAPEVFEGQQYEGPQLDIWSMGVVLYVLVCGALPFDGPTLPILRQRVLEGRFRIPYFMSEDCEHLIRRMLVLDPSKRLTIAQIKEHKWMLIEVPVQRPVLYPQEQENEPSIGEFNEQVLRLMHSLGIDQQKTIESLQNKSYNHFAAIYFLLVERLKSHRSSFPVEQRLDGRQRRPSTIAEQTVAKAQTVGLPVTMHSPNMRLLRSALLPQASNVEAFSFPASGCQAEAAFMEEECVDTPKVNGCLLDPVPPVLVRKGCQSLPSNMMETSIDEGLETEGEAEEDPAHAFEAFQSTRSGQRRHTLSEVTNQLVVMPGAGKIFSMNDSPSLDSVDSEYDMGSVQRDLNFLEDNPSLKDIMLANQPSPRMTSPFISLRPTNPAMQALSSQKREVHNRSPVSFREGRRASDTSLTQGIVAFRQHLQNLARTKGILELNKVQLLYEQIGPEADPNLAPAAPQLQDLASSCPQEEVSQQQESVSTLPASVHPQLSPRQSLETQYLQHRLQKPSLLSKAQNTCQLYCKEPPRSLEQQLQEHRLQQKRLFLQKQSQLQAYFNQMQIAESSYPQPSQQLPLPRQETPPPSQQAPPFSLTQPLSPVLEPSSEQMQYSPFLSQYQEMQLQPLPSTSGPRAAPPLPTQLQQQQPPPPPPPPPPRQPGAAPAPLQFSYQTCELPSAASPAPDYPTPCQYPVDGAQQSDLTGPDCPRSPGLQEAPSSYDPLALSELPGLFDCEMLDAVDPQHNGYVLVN

[2] = biological target: Proto-oncogene tyrosine-protein kinase receptor Ret (Homo sapiens, UniProt P07949); experiment: Binding affinity to wild-type human partial length RET (E713 to D1014 residues) expressed in bacterial expression system by Kinomescan method
Sequence of Proto-oncogene tyrosine-protein kinase receptor Ret (P07949 whole entry, the tested form may be a part): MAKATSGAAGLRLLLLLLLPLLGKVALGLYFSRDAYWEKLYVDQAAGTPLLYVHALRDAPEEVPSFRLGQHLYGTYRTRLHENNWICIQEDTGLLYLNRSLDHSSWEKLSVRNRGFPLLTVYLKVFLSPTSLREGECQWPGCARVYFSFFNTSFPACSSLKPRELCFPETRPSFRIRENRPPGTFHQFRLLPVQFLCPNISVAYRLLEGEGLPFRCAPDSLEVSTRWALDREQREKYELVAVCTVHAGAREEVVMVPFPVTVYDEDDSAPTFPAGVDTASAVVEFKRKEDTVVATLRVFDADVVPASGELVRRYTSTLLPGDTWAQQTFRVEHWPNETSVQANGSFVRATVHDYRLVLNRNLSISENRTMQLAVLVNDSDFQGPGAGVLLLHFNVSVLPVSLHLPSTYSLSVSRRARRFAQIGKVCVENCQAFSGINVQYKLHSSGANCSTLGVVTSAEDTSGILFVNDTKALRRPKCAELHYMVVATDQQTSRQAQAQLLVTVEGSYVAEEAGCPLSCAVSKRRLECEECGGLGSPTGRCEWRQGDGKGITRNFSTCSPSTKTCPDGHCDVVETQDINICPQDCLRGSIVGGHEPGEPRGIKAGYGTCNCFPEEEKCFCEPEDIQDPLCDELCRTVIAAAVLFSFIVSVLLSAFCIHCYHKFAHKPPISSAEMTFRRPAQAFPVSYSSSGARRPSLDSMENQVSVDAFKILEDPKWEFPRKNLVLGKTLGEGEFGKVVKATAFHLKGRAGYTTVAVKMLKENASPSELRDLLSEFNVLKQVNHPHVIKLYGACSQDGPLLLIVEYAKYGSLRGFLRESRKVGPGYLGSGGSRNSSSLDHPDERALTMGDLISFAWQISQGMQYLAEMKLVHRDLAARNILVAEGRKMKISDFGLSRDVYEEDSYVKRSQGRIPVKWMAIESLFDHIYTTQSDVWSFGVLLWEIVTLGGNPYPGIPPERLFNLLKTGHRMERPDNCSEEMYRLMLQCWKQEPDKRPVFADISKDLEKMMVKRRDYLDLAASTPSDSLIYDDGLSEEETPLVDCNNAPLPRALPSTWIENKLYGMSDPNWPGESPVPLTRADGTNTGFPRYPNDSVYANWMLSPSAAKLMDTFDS

cells [3] = format: functional, cell-based; settings: Homo sapiens, UCH1, 72 h
Description: Antiproliferative activity against human UCH1 cells measured after 72 hrs by alamar blue assay

cells [4] = format: functional, cell-based; settings: Homo sapiens, UCH2, 72 h
Description: Antiproliferative activity against human UCH2 cells measured after 72 hrs by alamar blue assay

[5] = biological target: Tyrosine-protein kinase ABL1 (Homo sapiens, UniProt P00519); experiment: Binding affinity to wild-type human ABL1 (S229 to K512 residues) expressed in mammalian expression system by Kinomescan method
Homo sapiens = species on record: Homo sapiens; experiment: Selectivity ratio of Kd for wild-type human partial length EGFR (R669 to V1011 residues) expressed in bacterial expression system to kd for wild-type human partial length GAK (G13 to Y338 residues) expressed in bacterial expression system
Activated CDC42 kinase 1 = Activated CDC42 kinase 1 (Homo sapiens, UniProt Q07912); experiment: Binding affinity to wild-type human partial length TNK2 (S159 to D474 residues) expressed in bacterial expression system by Kinomescan method
Sequence of Activated CDC42 kinase 1 (Q07912 whole entry, the tested form may be a part): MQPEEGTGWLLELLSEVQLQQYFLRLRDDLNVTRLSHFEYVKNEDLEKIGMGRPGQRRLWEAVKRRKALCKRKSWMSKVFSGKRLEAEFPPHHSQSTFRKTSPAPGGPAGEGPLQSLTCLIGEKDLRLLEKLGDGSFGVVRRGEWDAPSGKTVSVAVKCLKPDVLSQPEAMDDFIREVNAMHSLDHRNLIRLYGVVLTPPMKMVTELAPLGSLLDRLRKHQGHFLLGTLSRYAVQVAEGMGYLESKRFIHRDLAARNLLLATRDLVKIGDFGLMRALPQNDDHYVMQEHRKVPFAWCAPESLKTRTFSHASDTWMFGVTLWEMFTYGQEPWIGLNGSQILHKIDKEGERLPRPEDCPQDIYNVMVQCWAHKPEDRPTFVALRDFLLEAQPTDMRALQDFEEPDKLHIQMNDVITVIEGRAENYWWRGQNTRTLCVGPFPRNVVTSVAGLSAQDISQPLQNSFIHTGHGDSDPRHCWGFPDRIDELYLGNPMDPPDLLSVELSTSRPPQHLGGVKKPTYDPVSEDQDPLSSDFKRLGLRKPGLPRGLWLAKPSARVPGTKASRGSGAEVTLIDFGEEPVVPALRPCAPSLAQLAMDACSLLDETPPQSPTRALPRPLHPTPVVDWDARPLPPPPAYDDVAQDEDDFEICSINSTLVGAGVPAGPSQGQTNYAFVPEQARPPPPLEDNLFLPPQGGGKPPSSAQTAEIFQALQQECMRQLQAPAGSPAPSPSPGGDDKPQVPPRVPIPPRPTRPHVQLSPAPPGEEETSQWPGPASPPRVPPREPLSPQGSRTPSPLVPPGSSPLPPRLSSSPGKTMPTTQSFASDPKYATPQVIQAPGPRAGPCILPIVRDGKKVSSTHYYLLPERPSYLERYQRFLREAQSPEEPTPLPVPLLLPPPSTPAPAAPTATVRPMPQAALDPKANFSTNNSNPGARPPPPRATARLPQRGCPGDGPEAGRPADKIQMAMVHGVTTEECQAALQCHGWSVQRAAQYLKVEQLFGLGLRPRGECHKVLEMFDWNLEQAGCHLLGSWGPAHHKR

[6] = biological target: Tyrosine-protein kinase ABL2 (Homo sapiens, UniProt P42684); experiment: Binding affinity to wild-type human ABL2 (A248 to G542 residues) expressed in bacterial expression system by Kinomescan method
[7] = biological target: T1, Serine/threonine-protein kinase D2 (Homo sapiens, UniProt Q9BZL6); experiment: Binding affinity to wild-type human partial length PRKD2 (A519 to E838 residues) expressed in bacterial expression system by Kinomescan method
T1 sequence (Q9BZL6 whole entry): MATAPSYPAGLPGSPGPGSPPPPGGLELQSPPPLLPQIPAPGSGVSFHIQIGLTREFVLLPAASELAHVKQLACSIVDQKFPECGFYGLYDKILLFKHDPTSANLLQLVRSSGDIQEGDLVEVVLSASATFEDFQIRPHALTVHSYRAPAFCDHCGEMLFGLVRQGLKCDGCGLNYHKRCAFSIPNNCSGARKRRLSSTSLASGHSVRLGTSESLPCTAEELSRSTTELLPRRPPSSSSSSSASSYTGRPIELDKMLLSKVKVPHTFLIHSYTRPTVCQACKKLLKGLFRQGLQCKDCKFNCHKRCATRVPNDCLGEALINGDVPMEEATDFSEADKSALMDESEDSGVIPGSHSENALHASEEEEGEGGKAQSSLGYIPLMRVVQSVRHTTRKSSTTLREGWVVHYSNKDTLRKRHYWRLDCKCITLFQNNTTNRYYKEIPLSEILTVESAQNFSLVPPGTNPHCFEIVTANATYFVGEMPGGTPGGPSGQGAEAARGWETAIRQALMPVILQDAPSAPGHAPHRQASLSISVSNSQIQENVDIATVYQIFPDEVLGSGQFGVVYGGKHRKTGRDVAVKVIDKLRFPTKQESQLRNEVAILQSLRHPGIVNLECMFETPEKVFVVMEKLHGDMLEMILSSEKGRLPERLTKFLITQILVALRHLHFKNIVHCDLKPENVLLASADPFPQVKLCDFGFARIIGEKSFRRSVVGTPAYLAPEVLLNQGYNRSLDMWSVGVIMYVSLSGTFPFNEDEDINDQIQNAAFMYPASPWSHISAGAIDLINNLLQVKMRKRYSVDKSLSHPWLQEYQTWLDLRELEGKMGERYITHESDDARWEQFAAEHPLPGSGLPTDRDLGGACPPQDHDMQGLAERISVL

[8] = biological target: T2, Epidermal growth factor receptor (Homo sapiens, UniProt P00533);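 on IC50: human A431 cells pretreated 90 min, then EGF stimulated, sandwich ELISA measured decrease in EGF-induced receptor autophosphorylation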;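 on Kd: KINOMEscan competition binding with recombinant partial wild-type human EGFR (residues R669–V1011) produced in bacteria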
T2 sequence (P00533 whole entry, the tested form may be a part): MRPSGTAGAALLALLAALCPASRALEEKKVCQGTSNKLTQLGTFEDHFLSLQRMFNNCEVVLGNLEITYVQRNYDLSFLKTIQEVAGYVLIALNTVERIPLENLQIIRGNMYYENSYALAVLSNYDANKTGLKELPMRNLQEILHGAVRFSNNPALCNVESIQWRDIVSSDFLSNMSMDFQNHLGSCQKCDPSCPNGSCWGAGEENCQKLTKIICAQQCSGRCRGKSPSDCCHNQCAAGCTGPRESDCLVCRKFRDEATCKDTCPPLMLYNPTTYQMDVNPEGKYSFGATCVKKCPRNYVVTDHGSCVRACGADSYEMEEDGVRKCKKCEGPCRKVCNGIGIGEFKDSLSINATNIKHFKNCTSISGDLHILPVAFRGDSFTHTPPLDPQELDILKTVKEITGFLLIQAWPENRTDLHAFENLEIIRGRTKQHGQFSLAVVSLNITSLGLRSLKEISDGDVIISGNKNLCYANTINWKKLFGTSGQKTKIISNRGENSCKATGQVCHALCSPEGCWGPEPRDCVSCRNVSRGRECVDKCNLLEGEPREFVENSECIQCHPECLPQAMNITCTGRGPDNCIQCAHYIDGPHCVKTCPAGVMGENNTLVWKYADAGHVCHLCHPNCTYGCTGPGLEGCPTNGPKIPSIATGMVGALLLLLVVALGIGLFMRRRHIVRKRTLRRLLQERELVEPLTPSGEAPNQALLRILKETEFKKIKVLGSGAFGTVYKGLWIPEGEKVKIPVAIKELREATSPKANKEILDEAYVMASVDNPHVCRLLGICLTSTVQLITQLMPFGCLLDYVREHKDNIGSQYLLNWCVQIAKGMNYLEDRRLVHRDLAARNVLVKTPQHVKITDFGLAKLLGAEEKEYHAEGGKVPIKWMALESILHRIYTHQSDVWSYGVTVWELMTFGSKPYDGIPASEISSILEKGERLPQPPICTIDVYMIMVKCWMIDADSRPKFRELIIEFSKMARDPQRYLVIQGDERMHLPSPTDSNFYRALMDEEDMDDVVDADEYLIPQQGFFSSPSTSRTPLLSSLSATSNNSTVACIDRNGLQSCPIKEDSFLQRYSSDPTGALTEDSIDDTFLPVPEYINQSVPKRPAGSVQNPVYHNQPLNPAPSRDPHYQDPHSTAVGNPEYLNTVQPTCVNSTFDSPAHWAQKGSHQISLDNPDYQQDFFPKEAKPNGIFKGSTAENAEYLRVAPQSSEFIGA
Description: Binding affinity to wild-type human partial length EGFR (R669 to V1011 residues) expressed in bacterial expression system by Kinomescan method

cells [9] = format: functional, cell-based; settings: Homo sapiens, 72 h
Description: Antiproliferative activity against human UCH12 cells measured after 72 hrs by alamar blue assay

cells [10] = format: ADME, cell-based; settings: Homo sapiens, WS1, 72 h
Description: Cytotoxicity against human WS1 cells measured after 72 hrs by alamar blue assay

[11] = biological target: T3, Cyclin-G-associated kinase (Homo sapiens) (UniProt O14976); experiment: Inhibition of tracer 5 binding to human N-terminal nano luciferase-fused GAK expressed in HEK293 cells at 5 uM measured after 2 hrs by nanoBRET assay relative to control; format: cell-based
T3 sequence (whole entry): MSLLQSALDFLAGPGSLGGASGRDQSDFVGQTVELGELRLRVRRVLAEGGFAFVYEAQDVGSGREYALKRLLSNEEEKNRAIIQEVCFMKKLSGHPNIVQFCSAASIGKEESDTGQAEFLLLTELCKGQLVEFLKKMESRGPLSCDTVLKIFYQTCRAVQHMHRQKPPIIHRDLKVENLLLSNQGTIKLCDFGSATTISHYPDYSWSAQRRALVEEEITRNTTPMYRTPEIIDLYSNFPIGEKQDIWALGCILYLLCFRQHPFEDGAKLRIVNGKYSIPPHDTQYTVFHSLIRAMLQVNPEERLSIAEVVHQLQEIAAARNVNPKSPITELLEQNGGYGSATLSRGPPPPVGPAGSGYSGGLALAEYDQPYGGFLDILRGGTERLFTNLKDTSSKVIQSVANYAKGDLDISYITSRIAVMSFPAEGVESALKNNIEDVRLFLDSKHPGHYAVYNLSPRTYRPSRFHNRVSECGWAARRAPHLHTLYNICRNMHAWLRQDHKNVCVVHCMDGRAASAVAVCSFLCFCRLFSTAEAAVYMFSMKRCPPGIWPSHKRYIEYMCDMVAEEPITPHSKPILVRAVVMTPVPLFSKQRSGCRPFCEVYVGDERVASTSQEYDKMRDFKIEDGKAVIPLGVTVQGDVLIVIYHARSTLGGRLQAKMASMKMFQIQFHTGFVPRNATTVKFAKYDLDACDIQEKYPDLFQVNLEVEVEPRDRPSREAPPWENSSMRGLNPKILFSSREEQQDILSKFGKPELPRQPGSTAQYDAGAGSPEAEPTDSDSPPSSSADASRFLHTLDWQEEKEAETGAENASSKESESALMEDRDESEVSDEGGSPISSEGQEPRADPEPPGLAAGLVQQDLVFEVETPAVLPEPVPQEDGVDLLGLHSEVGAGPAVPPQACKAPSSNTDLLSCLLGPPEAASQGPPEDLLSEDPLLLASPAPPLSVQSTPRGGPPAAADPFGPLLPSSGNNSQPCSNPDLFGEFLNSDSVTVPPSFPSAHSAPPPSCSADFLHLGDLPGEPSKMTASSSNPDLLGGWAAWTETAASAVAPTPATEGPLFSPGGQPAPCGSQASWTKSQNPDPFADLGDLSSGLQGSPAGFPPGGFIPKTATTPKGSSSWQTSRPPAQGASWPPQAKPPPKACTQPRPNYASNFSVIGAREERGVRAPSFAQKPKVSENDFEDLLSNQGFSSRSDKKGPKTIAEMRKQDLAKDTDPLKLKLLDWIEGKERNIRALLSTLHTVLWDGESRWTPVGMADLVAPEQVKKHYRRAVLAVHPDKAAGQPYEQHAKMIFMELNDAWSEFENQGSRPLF

cells [12] = format: functional, cell-based; settings: Homo sapiens, 72 h; remark: listed apart in the source
Description: Antiproliferative activity against human UCH7 cells measured after 72 hrs by alamar blue assay

cells [13] = format: functional, cell-based; settings: Homo sapiens, 72 h; remark: listed apart in the source
Description: Antiproliferative activity against human CH22 cells measured after 72 hrs by alamar blue assay

[14] = biological target: T3, Cyclin-G-associated kinase (Homo sapiens); experiment: Binding affinity to wild-type human partial length GAK (G13 to Y338 residues) expressed in bacterial expression system at 1 uM by Kinomescan method relative to control
cells [15] = format: functional, cell-based; settings: Homo sapiens, 72 h; remark: listed apart in the source
Description: Antiproliferative activity against human UMCHOR1 cells measured after 72 hrs by alamar blue assay

cells [16] = format: functional, cell-based; settings: Homo sapiens, 72 h; remark: listed apart in the source
Description: Antiproliferative activity against human UCH14 cells measured after 72 hrs by alamar blue assay

[17] = biological target: Nucleoside diphosphate kinase B (Homo sapiens) (UniProt P22392); experiment: Binding affinity to NME2 in human SUM159 cell lysates by multiplexed inhibitor bead profiling-based LC-MS/MS analysis; format: subcellular; settings: Lysate
Sequence of Nucleoside diphosphate kinase B (Homo sapiens) (P22392 whole entry): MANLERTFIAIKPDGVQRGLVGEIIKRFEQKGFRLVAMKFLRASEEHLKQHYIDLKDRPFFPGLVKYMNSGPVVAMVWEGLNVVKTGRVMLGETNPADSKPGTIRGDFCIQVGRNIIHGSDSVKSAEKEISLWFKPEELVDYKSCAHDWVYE

[18] = biological target: T2, Epidermal growth factor receptor; format: cell-based
Description: Inhibition of EGFR in human A431 cells assessed as reduction in EGF-stimulated EGFR autophosphorylation preincuabted for 90 mins followed by EGF-stimulation by sandwich-ELISA

[19] = biological target: Aurora kinase B (Homo sapiens) (UniProt Q96GD4); experiment: Binding affinity to AURKB in human SUM159 cell lysates by multiplexed inhibitor bead profiling-based LC-MS/MS analysis; format: subcellular; settings: Lysate
Sequence of Aurora kinase B (Homo sapiens) (Q96GD4 whole entry): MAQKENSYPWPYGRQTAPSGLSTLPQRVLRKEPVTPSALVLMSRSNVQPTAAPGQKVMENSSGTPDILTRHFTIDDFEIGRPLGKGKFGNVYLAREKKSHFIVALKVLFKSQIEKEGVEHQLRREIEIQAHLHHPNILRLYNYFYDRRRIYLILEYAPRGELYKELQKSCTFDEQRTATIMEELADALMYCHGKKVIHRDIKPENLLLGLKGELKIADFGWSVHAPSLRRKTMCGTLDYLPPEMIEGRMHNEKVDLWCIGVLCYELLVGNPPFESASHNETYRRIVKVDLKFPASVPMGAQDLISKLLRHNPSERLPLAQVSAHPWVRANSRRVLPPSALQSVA

[20] = biological target: T4, Dual specificity mitogen-activated protein kinase kinase 5 (Homo sapiens) (UniProt Q13163); experiment: Binding affinity to MAP2K5 in human SUM159 cell lysates by multiplexed inhibitor bead profiling-based LC-MS/MS analysis; format: subcellular; settings: Lysate
T4 sequence (whole entry): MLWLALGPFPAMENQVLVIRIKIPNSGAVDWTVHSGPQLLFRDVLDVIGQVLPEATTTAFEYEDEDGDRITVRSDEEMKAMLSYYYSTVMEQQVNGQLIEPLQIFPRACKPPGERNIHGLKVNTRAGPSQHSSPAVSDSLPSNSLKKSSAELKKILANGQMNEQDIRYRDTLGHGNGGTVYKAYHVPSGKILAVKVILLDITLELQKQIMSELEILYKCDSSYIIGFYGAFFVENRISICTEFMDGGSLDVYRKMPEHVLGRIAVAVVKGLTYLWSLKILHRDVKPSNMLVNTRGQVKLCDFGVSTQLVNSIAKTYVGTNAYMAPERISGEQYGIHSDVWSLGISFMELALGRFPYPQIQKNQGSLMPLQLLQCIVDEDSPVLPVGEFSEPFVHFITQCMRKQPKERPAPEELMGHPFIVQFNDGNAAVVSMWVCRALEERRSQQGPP

[21] = biological target: T5, Cyclin-G-associated kinase (Homo sapiens, UniProt O14976); experiment: Binding affinity to wild-type human partial length GAK (G13 to Y338 residues) expressed in bacterial expression system by Kinomescan method
T5 sequence (O14976 whole entry): T3 sequence (whole entry)

Compound | IC50 (cells [3]) | IC50 (cells [4]) | Kd [8] | IC50 (cells [9]) | IC50 (cells [10]) | inhibition [11] | IC50 (cells [12]) | IC50 (cells [13]) | IC50 (cells [15]) | IC50 (cells [16]) | other results
COc1cccc(Nc2ncnn3ccc(CN4CC[C@@H](N)[C@H](O)C4)c23)c1 [BMS-690514] | 0.53 µM | > 50 µM | 0.22 µM |  |  |  |  |  |  |  | Kd [1]: < 0.225 µM; Kd [2]: < 0.225 µM; Kd [5]: < 0.225 µM; Selectivity ratio (Homo sapiens): > 700; Kd (Activated CDC42 kinase 1): < 0.225 µM; Kd [6]: < 0.225 µM; Kd [7]: < 0.225 µM
CS(=O)(=O)CCNCc1ccc(-c2ccc3ncnc(Nc4ccc(OCc5cccc(F)c5)c(Cl)c4)c3c2)o1 [LAPATINIB] | 3.2 µM | > 50 µM |  | 33 µM | 13 µM | 0% | 26 µM | 25 µM | 25 µM | > 50 µM | Activity [14]: < 50%
COc1cc2nccc(Nc3ccc(OCc4cccc(F)c4)c(Cl)c3)c2cc1OC | 2.6 µM | 2.9 µM | 0.032 µM | 5.5 µM | 8.6 µM | 22% | 2.7 µM | 1 µM | 1.5 µM | 7 µM | Activity [17]: Active; IC50 [18]: 1.7 µM; Activity [19]: Active; Activity [20]: Active; Kd [21]: > 10 µM
